Data taken from patent US5798361A, “5H-thiazolo[3,2-a]pyrimidin-5-one derivatives” (Ferrer Internacional, S.A., priority 1995, dated 1998).

Assays:
5HT2 receptors [1] = molecular target: T1, 5HT2 receptors (Mus musculus, UniProt P35363); experiment: Inhibition of DOI-induced head twitches and scratches; format: in vivo, Male N.M.R.I. mice; settings: p.o., mice, DOI 3 mg/kg i.p. at 60 min
T1 construct: Male N.M.R.I. mice weighing 22-26 g were used; from tissue; host or cells: living male N.M.R.I. mice (whole animal, endogenous receptor)
T1 sequence (P35363 whole entry): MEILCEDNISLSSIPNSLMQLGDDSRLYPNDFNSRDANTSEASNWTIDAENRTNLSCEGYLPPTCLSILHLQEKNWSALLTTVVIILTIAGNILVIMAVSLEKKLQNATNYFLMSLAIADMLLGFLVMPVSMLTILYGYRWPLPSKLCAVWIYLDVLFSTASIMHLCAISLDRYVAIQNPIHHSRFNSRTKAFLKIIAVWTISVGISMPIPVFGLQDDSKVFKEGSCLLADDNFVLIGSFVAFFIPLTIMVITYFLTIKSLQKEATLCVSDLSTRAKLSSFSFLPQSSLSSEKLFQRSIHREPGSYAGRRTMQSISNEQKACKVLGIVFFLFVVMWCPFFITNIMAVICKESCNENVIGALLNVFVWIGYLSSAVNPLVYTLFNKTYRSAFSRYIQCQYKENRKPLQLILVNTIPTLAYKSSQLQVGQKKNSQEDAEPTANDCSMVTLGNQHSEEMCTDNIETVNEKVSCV
Procedure: (§1) The inhibiton test of apomorphine-induced climbing behaviour and the inhibition test of DOI-induced head twitches and scratches are hereinafter described.
Inhibition of DOI-induced head twitches and scratches
Male N.M.R.I. mice weighing 22-26 g were used. After the animals were weighed, they were individually placed in transparent cages two hours prior to experiment. Test compound was given p.o. at time 0. The administration interval time between mice was 5 min. At time 60 min DOI at the dose of 3 mg/kg i.p. dissolved in saline was administered. The number of head twitches and scratches were assessed as well as the presence or absence of escape attempts.

5HT2 receptors [2] = molecular target: T2, 5HT2 receptors (Rattus norvegicus, UniProt P14842); experiment: Specific binding to 5HT2 receptors ([3H]ketanserin, rat cortex membrane); settings: [3H]ketanserin 0.5 nM, 30 min, 35° C., pH 7.4
T2 construct: membrane corresponding to 1 mg of rat cortex; from tissue; host or cells: rat cortex membrane
T2 sequence (P14842 whole entry): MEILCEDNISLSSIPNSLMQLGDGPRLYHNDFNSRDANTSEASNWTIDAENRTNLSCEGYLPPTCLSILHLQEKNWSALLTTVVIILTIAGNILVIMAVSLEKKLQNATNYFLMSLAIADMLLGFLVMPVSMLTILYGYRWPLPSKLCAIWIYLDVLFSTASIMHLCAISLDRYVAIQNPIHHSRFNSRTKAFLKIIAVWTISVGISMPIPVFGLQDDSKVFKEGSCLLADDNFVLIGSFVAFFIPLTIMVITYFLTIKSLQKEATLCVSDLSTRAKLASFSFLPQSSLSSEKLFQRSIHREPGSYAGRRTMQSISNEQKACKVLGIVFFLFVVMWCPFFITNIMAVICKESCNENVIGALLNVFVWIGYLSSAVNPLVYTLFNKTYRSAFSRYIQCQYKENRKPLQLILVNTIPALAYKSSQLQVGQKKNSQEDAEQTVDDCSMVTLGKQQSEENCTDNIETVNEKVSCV
Procedure: (§2) Specific binding to D2 and 5HT2 receptors was tested as follows:
5HT2 receptors: A 0.5 nM solution of radioactive ketanserin ([^3 H]ketanserin), which acts as a specific ligand, was incubated with the membrane corresponding to 1 mg of rat cortex for 30 min at 35° C. buffered at pH 7.4 with Tris.HCl. Non-specific binding was then determined by addition of 5 micromolar concentration of unlabelled mianserin. IC50 (inhibitory concentration 50%) was calculated from the inhibition rate of the specific binding obtained by addition of eleven different concentrations of the compounds to be tested. After the incubation was completed, the sample was filtered through a glass fiber filter and then washed three times with Tris.HCl buffer. The amount of receptor-bound radioactivity was retained on the membrane and determined by liquid scintillation counting.

[3] = system: apomorphine-induced climbing behaviour; experiment: Inhibition of apomorphine-induced climbing behaviour; format: in vivo, Male Swiss mice; settings: Mus musculus, 1 h; oral, mice, apomorphine 1 mg/kg s.c. at 60 min
Procedure: as §1
Inhibition of aoomorphine-induced climbing behaviour
Male Swiss mice weighing 22-24 g were used. One week prior to experiment, animals were kept in our facilities at a temperature of 20°-22° C. and 12/12 h light-dark cycle, and had free access to food and water. Two hours prior to experiment, the animals were placed in individual cages without access to food.
Animals were administered orally with test drug or 0.25% agar at time 0. After 60 minutes, apomorphine was subcutaneously injected at a dose of 1 mg/kg, and after further 70 minutes the animal's behaviour was assessed. Two additional assessments were performed at 10-min intervals. For assessment, each animal was placed on the bottom of a small upright box (11×7.5×4.5 cm). The walls of the box were made of translucent methacrylate except one of the lateral surfaces (7.5 cm wide) which was a 3-mm wire mesh. The position of the animal was scored for 2 minutes according to the following criteria: 0=four paws on the floor; 1=three paws on the floor; 2=two paws on the floor; 3=one paw on the floor; and 4=four paws holding the wire mesh. If an animal keeps several positions within the 2-min observation, the seconds elapsed in each position will be recorded. Finally, mean scoring was calculated.

D2 receptors = molecular target: T3, D2 receptors (Rattus norvegicus, UniProt P61169); experiment: Specific binding to D2 receptors ([3H]spiperone, rat striatum membrane); settings: for IC50: [3H]spiperone 2 nM, rat striatum membrane, 20 min, 35° C., pH 7.4; for D2/5HT2 ratio: ratio of IC50 values, D2 over 5HT2
T3 construct: membrane corresponding to 20 mg of rat striatum; from tissue; host or cells: rat striatum membrane
T3 sequence (P61169 whole entry): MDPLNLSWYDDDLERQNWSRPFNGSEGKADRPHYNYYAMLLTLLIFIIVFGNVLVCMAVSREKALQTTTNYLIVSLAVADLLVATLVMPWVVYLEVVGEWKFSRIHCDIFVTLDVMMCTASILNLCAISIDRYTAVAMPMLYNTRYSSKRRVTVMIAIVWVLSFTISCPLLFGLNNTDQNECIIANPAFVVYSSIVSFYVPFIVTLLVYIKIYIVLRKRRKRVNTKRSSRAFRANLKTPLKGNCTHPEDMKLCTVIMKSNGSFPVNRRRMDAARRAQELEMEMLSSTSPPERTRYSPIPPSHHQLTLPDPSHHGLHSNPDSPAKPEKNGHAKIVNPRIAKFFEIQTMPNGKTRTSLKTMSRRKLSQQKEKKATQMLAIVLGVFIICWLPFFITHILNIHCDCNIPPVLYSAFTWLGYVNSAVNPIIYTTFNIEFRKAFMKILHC
Procedure: as §2
D2 receptors: A 2-nM solution of radioactive spiperone ([^3 H]spiperone), which acts as a specific ligand, was incubated with the membrane corresponding to 20 mg of rat striatum for 20 min at 35° C. buffered at pH 7.4 with Tris.HCl. The non-specific binding was then determined by addition of a micromolar concentration of unlabelled spiperone. […] After the incubation was completed, the sample was filtered through a glass fiber filter and then washed three times with Tris.HCl buffer. The amount of receptor-bound radioactivity was retained on the membrane and determined by liquid scintillation counting.

[4] = Catalepsy by oral route in Sprague-Dawley rats; format: in vivo; settings: for ED50: rat, in vivo, oral, Sprague-Dawley rats, 50% of treated animals showed catalepsy; for R (Catalepsy/Climbing): ratio of ED50 values

SMILES: Cc1nc2scc(-c3ccc(F)cc3)n2c(=O)c1CCN1CCC(c2noc3cc(F)ccc23)CC1 [Example 14, 6-[2-[4-(6-fluoro-1,2-benzisoxazol-3-yl)-1-piperidinyl]ethyl]-3-(4-fluorophenyl)-7-methyl-5H-thiazolo[3,2-a]pyrimidin-5-one]
- ED50 DOI (5HT2 receptors [1]): 0.28 mg/kg
- IC50 (5HT2 receptors [2]): 3.18 nM
- ED50 [3]: 2.9 mg/kg
- IC50 (D2 receptors): 19.7 nM
- D2/5HT2 ratio (D2 receptors): 6.2
- ED50 [4]: 9.3 mg/kg
- R (Catalepsy/Climbing) [4]: 3.2

SMILES: Cc1nc2scc(-c3ccccc3)n2c(=O)c1CCN1CCC(c2noc3cc(F)ccc23)CC1 [Example 15, 6-[2-[4-(6-fluoro-1,2-benzisoxazol-3-yl)-1-piperidinyl]ethyl]-3-phenyl-7-methyl-5H-thiazolo[3,2-a]pyrimidin-5-one]
- ED50 DOI (5HT2 receptors [1]): 0.58 mg/kg
- IC50 (5HT2 receptors [2]): 3.94 nM
- ED50 [3]: 14.7 mg/kg
- IC50 (D2 receptors): 44.1 nM
- D2/5HT2 ratio (D2 receptors): 11.2
- ED50 [4]: 16 mg/kg
- R (Catalepsy/Climbing) [4]: 1.1

SMILES: COc1ccc(-c2csc3nc(C)c(CCN4CCC(c5noc6cc(F)ccc56)CC4)c(=O)n23)cc1 [Example 16, 6-[2-[4-(6-fluoro-1,2-benzisoxazol-3-yl)-1-piperidinyl]ethyl]-3-(4-methoxyphenyl)-7-methyl-5H-thiazolo[3,2-a]pyrimidin-5-one]
- ED50 DOI (5HT2 receptors [1]): 0.84 mg/kg
- IC50 (5HT2 receptors [2]): 8.32 nM
- ED50 [3]: 7.4 mg/kg
- IC50 (D2 receptors): 42.1 nM
- D2/5HT2 ratio (D2 receptors): 5.1
- ED50 [4]: 30 mg/kg
- R (Catalepsy/Climbing) [4]: 4.1

SMILES: Cc1ccc(-c2csc3nc(C)c(CCN4CCC(c5noc6cc(F)ccc56)CC4)c(=O)n23)cc1 [Example 17, 6-[2-[4-(6-fluoro-1,2-benzisoxazol-3-yl)-1-piperidinyl]ethyl]-3-(4-methylphenyl)-7-methyl-5H-thiazolo[3,2-a]pyrimidin-5-one]
- ED50 DOI (5HT2 receptors [1]): 0.57 mg/kg
- IC50 (5HT2 receptors [2]): 14.9 nM
- ED50 [3]: 3.9 mg/kg
- IC50 (D2 receptors): 36.4 nM
- D2/5HT2 ratio (D2 receptors): 2.4
- ED50 [4]: 22.5 mg/kg
- R (Catalepsy/Climbing) [4]: 5.8

SMILES: Cc1nc2scc(-c3ccc4c(c3)OCO4)n2c(=O)c1CCN1CCC(c2noc3cc(F)ccc23)CC1 [Example 18]
- ED50 DOI (5HT2 receptors [1]): 0.80 mg/kg
- IC50 (5HT2 receptors [2]): 7.63 nM
- ED50 [3]: 7.7 mg/kg
- IC50 (D2 receptors): 17.3 nM
- D2/5HT2 ratio (D2 receptors): 2.3
- ED50 [4]: 20 mg/kg
- R (Catalepsy/Climbing) [4]: 2.6

SMILES: Cc1nc2scc(-c3ccc(Cl)cc3)n2c(=O)c1CCN1CCC(c2noc3cc(F)ccc23)CC1 [Example 19]
- ED50 DOI (5HT2 receptors [1]): 0.82 mg/kg
- IC50 (5HT2 receptors [2]): 11.1 nM
- ED50 [3]: 3.5 mg/kg
- IC50 (D2 receptors): 43.6 nM
- D2/5HT2 ratio (D2 receptors): 3.9
- ED50 [4]: 9.5 mg/kg
- R (Catalepsy/Climbing) [4]: 2.7

SMILES: Cc1nc2scc(-c3ccc(Cl)c(Cl)c3)n2c(=O)c1CCN1CCC(c2noc3cc(F)ccc23)CC1 [Example 20]
- IC50 (5HT2 receptors [2]): 35.2 nM
- IC50 (D2 receptors): 19.4 nM
- D2/5HT2 ratio (D2 receptors): 0.6

SMILES: Cc1nc2scc(-c3cccc(Cl)c3)n2c(=O)c1CCN1CCC(c2noc3cc(F)ccc23)CC1 [Example 21]
- IC50 (5HT2 receptors [2]): 24.5 nM
- IC50 (D2 receptors): 16.6 nM
- D2/5HT2 ratio (D2 receptors): 0.7

SMILES: COc1cccc(-c2csc3nc(C)c(CCN4CCC(c5noc6cc(F)ccc56)CC4)c(=O)n23)c1 [Example 22]
- ED50 DOI (5HT2 receptors [1]): 1.10 mg/kg
- IC50 (5HT2 receptors [2]): 7.46 nM
- ED50 [3]: 19 mg/kg
- IC50 (D2 receptors): 28 nM
- D2/5HT2 ratio (D2 receptors): 3.8
- ED50 [4]: 40 mg/kg
- R (Catalepsy/Climbing) [4]: 2.1

SMILES: Cc1cccc(-c2csc3nc(C)c(CCN4CCC(c5noc6cc(F)ccc56)CC4)c(=O)n23)c1 [Example 23]
- IC50 (5HT2 receptors [2]): 32.1 nM
- IC50 (D2 receptors): 22.3 nM
- D2/5HT2 ratio (D2 receptors): 0.7

SMILES: Cc1nc2scc(-c3ccccc3Cl)n2c(=O)c1CCN1CCC(c2noc3cc(F)ccc23)CC1 [Example 24]
- ED50 DOI (5HT2 receptors [1]): 1.50 mg/kg
- IC50 (5HT2 receptors [2]): 29.5 nM
- ED50 [3]: > 50 mg/kg
- IC50 (D2 receptors): 29.2 nM
- D2/5HT2 ratio (D2 receptors): 1.0
- ED50 [4]: > 50 mg/kg

SMILES: Cc1nc2scc(-c3cccc(C(F)(F)F)c3)n2c(=O)c1CCN1CCC(c2noc3cc(F)ccc23)CC1 [Example 25]
- IC50 (5HT2 receptors [2]): 83.3 nM
- IC50 (D2 receptors): 20.9 nM
- D2/5HT2 ratio (D2 receptors): 0.3

SMILES: Cc1nc2scc(-c3ccccc3F)n2c(=O)c1CCN1CCC(c2noc3cc(F)ccc23)CC1 [Example 26]
- ED50 DOI (5HT2 receptors [1]): 0.42 mg/kg
- IC50 (5HT2 receptors [2]): 3.51 nM
- ED50 [3]: > 50 mg/kg
- IC50 (D2 receptors): 82 nM
- D2/5HT2 ratio (D2 receptors): 23.4
- ED50 [4]: > 50 mg/kg

SMILES: Cc1nc2scc(-c3ccccc3)n2c(=O)c1CCN1CCC(C(=O)c2ccc(F)cc2)CC1 [Example 27]
- ED50 DOI (5HT2 receptors [1]): 1.20 mg/kg
- IC50 (5HT2 receptors [2]): 12.5 nM
- ED50 [3]: > 50 mg/kg
- IC50 (D2 receptors): 174 nM
- D2/5HT2 ratio (D2 receptors): 13.9
- ED50 [4]: > 50 mg/kg

SMILES: COc1ccc(-c2csc3nc(C)c(CCN4CCC(C(=O)c5ccc(F)cc5)CC4)c(=O)n23)cc1 [Example 28]
- ED50 DOI (5HT2 receptors [1]): 0.60 mg/kg
- IC50 (5HT2 receptors [2]): 8.26 nM
- ED50 [3]: 24.6 mg/kg
- IC50 (D2 receptors): 79.9 nM
- D2/5HT2 ratio (D2 receptors): 9.7
- ED50 [4]: > 50 mg/kg
- R (Catalepsy/Climbing) [4]: > 2.0

SMILES: O=C(CCCN1CCC(O)(c2ccc(Cl)cc2)CC1)c1ccc(F)cc1 [Haloperidol, reference compound]
- ED50 [3]: 1.2 mg/kg
- ED50 [4]: 1.95 mg/kg
